Assay results: PubChem BioAssay AID256 (DTP/NCI, 2004)
Values joined by “and” are separate entries in the source; they are usually repeats but may differ in a detail not shown here. Identical values can stand only once. Inconclusive results and toxic doses are left out.

System: CD2F1 mice, L1210 leukemia ip, survival T/C
Test: NCI In Vivo Anticancer Drug Screen. Data for tumor model L1210 Leukemia (intraperitoneal) in CD2F1 (CDF1) mice
Conditions: higher = longer survival
Procedure, shortened: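 Tumor-bearing mice (transplanted tumor) were split into treated and vehicle control groups, and the measured endpoint of each treated group was divided by that of its vehicle controls.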

CO[C@@]12[C@H](COC(N)=O)C3=C(C(=O)C(C)=C(N)C3=O)N1C[C@@H]1N[C@@H]12
T/C (endpoint: mean survival time, dose: 0.25 mg/kg/injection, schedule: Q01DX009 (ip), vehicle: saline): 118 % of control and 121 % of control | T/C (endpoint: mean survival time, dose: 0.38 mg/kg/injection, schedule: Q01DX009 (ip), vehicle: water): 103 % of control | T/C (endpoint: mean survival time, dose: 0.4 mg/kg/injection, schedule: Q04DX003 (ip), vehicle: water): 111 % of control | T/C (endpoint: mean survival time, dose: 0.45 mg/kg/injection, schedule: Q01DX007 (ip), vehicle: acetone): 117 % of control | T/C (endpoint: mean survival time, dose: 0.5 mg/kg/injection, schedule: Q01DX009 (ip), vehicle: water): 113 % of control | T/C (endpoint: mean survival time, dose: 0.6 mg/kg/injection, schedule: Q01DX001 (ip), vehicle: carboxymethylcellulose (CMC)): 111 % of control | T/C (endpoint: mean survival time, dose: 0.65 mg/kg/injection, schedule: Q04DX003 (ip), vehicle: water): 111 % of control | T/C (endpoint: mean survival time, dose: 0.68 mg/kg/injection, schedule: Q01DX007 (ip), vehicle: acetone): 121 % of control | T/C (endpoint: mean survival time, dose: 0.68 mg/kg/injection, schedule: Q03DX004 (ip), vehicle: acetone): 119 % of control | T/C (endpoint: mean survival time, dose: 0.75 mg/kg/injection, schedule: Q01DX005 (ip), vehicle: clinical formulation): 120 % of control | T/C (endpoint: mean survival time, dose: 0.75 mg/kg/injection, schedule: Q01DX009 (ip), vehicle: water): 104 % of control | T/C (endpoint: mean survival time, dose: 0.87 mg/kg/injection, schedule: Q01DX001 (ip), vehicle: acetone): 110 % of control | T/C (endpoint: mean survival time, dose: 1.0 mg/kg/injection, schedule: Q01DX009 (ip), vehicle: water): 115 % of control | T/C (endpoint: mean survival time, dose: 1.0 mg/kg/injection, schedule: Q04DX003 (ip), vehicle: saline): 116 % of control | T/C (endpoint: mean survival time, dose: 1.1 mg/kg/injection, schedule: Q04DX003 (ip), vehicle: water): 119 % of control | T/C (endpoint: mean survival time, dose: 1.2 mg/kg/injection, schedule: Q01DX001 (ip), vehicle: carboxymethylcellulose (CMC)): 116 % of control | T/C (endpoint: mean survival time, dose: 1.5 mg/kg/injection, schedule: Q01DX001 (ip), vehicle: saline): 105 % of control | T/C (endpoint: mean survival time, dose: 1.5 mg/kg/injection, schedule: Q01DX005 (ip), vehicle: clinical formulation): 151 % of control | T/C (endpoint: mean survival time, dose: 1.55 mg/kg/injection, schedule: Q02DX005 (ip), vehicle: saline): 119 % of control | T/C (endpoint: mean survival time, dose: 1.55 mg/kg/injection, schedule: Q03DX004 (ip), vehicle: saline): 116 % of control | T/C (endpoint: mean survival time, dose: 1.55 mg/kg/injection, schedule: Q04DX003 (ip), vehicle: saline): 114 % of control | T/C (endpoint: mean survival time, dose: 1.55 mg/kg/injection, schedule: Q08DX002 (ip), vehicle: saline): 104 % of control | T/C (endpoint: mean survival time, dose: 1.75 mg/kg/injection, schedule: Q01DX001 (ip), vehicle: carboxymethylcellulose (CMC)): 110 % of control | T/C (endpoint: mean survival time, dose: 1.75 mg/kg/injection, schedule: Q01DX001 (ip), vehicle: saline): 120 % of control | T/C (endpoint: mean survival time, dose: 2.0 mg/kg/injection, schedule: Q01DX009 (ip), vehicle: water): 107 % of control | T/C (endpoint: mean survival time, dose: 2.0 mg/kg/injection, schedule: Q04DX003 (ip), vehicle: saline): 119 % of control | T/C (endpoint: mean survival time, dose: 2.3 mg/kg/injection, schedule: Q01DX001 (ip), vehicle: acetone): 150 % of control | T/C (endpoint: mean survival time, dose: 2.3 mg/kg/injection, schedule: Q01DX001 (ip), vehicle: carboxymethylcellulose (CMC)): 118 % of control and 111 % of control | T/C (endpoint: mean survival time, dose: 2.33 mg/kg/injection, schedule: Q02DX005 (ip), vehicle: saline): 119 % of control | T/C (endpoint: mean survival time, dose: 2.33 mg/kg/injection, schedule: Q03DX004 (ip), vehicle: saline): 123 % of control | T/C (endpoint: mean survival time, dose: 2.33 mg/kg/injection, schedule: Q04DX003 (ip), vehicle: saline): 121 % of control | T/C (endpoint: mean survival time, dose: 2.33 mg/kg/injection, schedule: Q08DX002 (ip), vehicle: saline): 111 % of control | T/C (endpoint: mean survival time, dose: 2.9 mg/kg/injection, schedule: Q01DX001 (ip), vehicle: saline): 124 % of control | T/C (endpoint: mean survival time, dose: 3.0 mg/kg/injection, schedule: Q01DX001 (ip), vehicle: saline): 124 % of control | T/C (endpoint: mean survival time, dose: 3.0 mg/kg/injection, schedule: Q01DX005 (ip), vehicle: clinical formulation): 113 % of control and 98 % of control | T/C (endpoint: mean survival time, dose: 3.0 mg/kg/injection, schedule: Q01DX009 (ip), vehicle: water): 101 % of control and 108 % of control | T/C (endpoint: mean survival time, dose: 3.0 mg/kg/injection, schedule: Q04DX003 (ip), vehicle: saline): 170 % of control | T/C (endpoint: mean survival time, dose: 3.5 mg/kg/injection, schedule: Q01DX001 (ip), vehicle: acetone): 156 % of control | T/C (endpoint: mean survival time, dose: 3.5 mg/kg/injection, schedule: Q01DX001 (ip), vehicle: carboxymethylcellulose (CMC)): 155 % of control | T/C (endpoint: mean survival time, dose: 3.5 mg/kg/injection, schedule: Q04DX003 (ip), vehicle: saline): 123 % of control | T/C (endpoint: mean survival time, dose: 3.5 mg/kg/injection, schedule: Q08DX002 (ip), vehicle: saline): 121 % of control | T/C (endpoint: mean survival time, dose: 4.5 mg/kg/injection, schedule: Q01DX001 (ip), vehicle: saline): 108 % of control | T/C (endpoint: mean survival time, dose: 4.7 mg/kg/injection, schedule: Q01DX001 (ip), vehicle: saline): 122 % of control | T/C (endpoint: mean survival time, dose: 5.0 mg/kg/injection, schedule: Q04DX003 (ip), vehicle: water): 150 % of control | T/C (endpoint: mean survival time, dose: 5.25 mg/kg/injection, schedule: Q01DX001 (ip), vehicle: carboxymethylcellulose (CMC)): 176 % of control | T/C (endpoint: mean survival time, dose: 5.25 mg/kg/injection, schedule: Q01DX004 (ip), vehicle: saline): 152 % of control | T/C (endpoint: mean survival time, dose: 5.25 mg/kg/injection, schedule: Q01DX005 (ip), vehicle: saline): 165 % of control | T/C (endpoint: mean survival time, dose: 7.0 mg/kg/injection, schedule: Q01DX003 (ip), vehicle: saline): 150 % of control | T/C (endpoint: mean survival time, dose: 7.0 mg/kg/injection, schedule: Q04DX003 (ip), vehicle: saline): 152 % of control | T/C (endpoint: mean survival time, dose: 8.3 mg/kg/injection, schedule: Q04DX003 (ip), vehicle: water): 119 % of control | T/C (endpoint: mean survival time, dose: 10.5 mg/kg/injection, schedule: Q01DX001 (ip), vehicle: carboxymethylcellulose (CMC)): 114 % of control | T/C (endpoint: mean survival time, dose: 12.0 mg/kg/injection, schedule: Q01DX001 (ip), vehicle: saline): 112 % of control | T/C (endpoint: median survival time, dose: 0.1 mg/kg/injection, schedule: Q01DX009 (ip), vehicle: saline): 192 % of control | T/C (endpoint: median survival time, dose: 0.1 mg/kg/injection, schedule: Q04DX003 (ip), vehicle: saline): 108 % of control | T/C (endpoint: median survival time, dose: 0.12 mg/kg/injection, schedule: Q01DX009 (ip), vehicle: Klucel (hydroxypropylcellulose) (HPC)): 102 % of control | T/C (endpoint: median survival time, dose: 0.2 mg/kg/injection, schedule: Q01DX009 (ip), vehicle: saline): 113 % of control | T/C (endpoint: median survival time, dose: 0.2 mg/kg/injection, schedule: Q04DX003 (ip), vehicle: saline): 107 % of control | T/C (endpoint: median survival time, dose: 0.25 mg/kg/injection, schedule: Q01DX009 (ip), vehicle: Klucel (hydroxypropylcellulose) (HPC)): 102 % of control | T/C (endpoint: median survival time, dose: 0.25 mg/kg/injection, schedule: Q01DX009 (ip), vehicle: saline): 109 % of control | T/C (endpoint: median survival time, dose: 0.25 mg/kg/injection, schedule: Q01DX009 (ip), vehicle: water): 115 % of control | T/C (endpoint: median survival time, dose: 0.4 mg/kg/injection, schedule: Q01DX001 (ip), vehicle: saline): 113 % of control | T/C (endpoint: median survival time, dose: 0.4 mg/kg/injection, schedule: Q01DX009 (ip), vehicle: saline): 124 % of control | T/C (endpoint: median survival time, dose: 0.4 mg/kg/injection, schedule: Q04DX003 (ip), vehicle: saline): 109 % of control | T/C (endpoint: median survival time, dose: 0.5 mg/kg/injection, schedule: Q01DX009 (ip), vehicle: Klucel (hydroxypropylcellulose) (HPC)): 104 % of control | T/C (endpoint: median survival time, dose: 0.5 mg/kg/injection, schedule: Q01DX009 (ip), vehicle: saline): 118 % of control | T/C (endpoint: median survival time, dose: 0.75 mg/kg/injection, schedule: Q01DX001 (ip), vehicle: saline): 115 % of control | T/C (endpoint: median survival time, dose: 0.8 mg/kg/injection, schedule: Q01DX001 (ip), vehicle: saline): 112 % of control | T/C (endpoint: median survival time, dose: 0.8 mg/kg/injection, schedule: Q04DX003 (ip), vehicle: saline): 124 % of control | T/C (endpoint: median survival time, dose: 1.0 mg/kg/injection, schedule: Q01DX009 (ip), vehicle: Klucel (hydroxypropylcellulose) (HPC)): 116 % of control | T/C (endpoint: median survival time, dose: 1.6 mg/kg/injection, schedule: Q01DX009 (ip), vehicle: saline): 165 % of control | T/C (endpoint: median survival time, dose: 1.8 mg/kg/injection, schedule: Q01DX001 (ip), vehicle: water): 116 % of control and 102 % of control and 105 % of control | T/C (endpoint: median survival time, dose: 2.4 mg/kg/injection, schedule: Q03DX003 (ip), vehicle: saline): 118 % of control and 203 % of control | T/C (endpoint: median survival time, dose: 3.2 mg/kg/injection, schedule: Q01DX009 (ip), vehicle: saline): 96 % of control | T/C (endpoint: median survival time, dose: 3.2 mg/kg/injection, schedule: Q04DX003 (ip), vehicle: saline): 168 % of control | T/C (endpoint: median survival time, dose: 3.6 mg/kg/injection, schedule: Q01DX001 (ip), vehicle: saline): 155 % of control and 160 % of control | T/C (endpoint: median survival time, dose: 4.0 mg/kg/injection, schedule: Q01DX009 (ip), vehicle: saline): 97 % of control | T/C (endpoint: median survival time, dose: 4.8 mg/kg/injection, schedule: Q01DX001 (ip), vehicle: saline): 166 % of control | T/C (endpoint: median survival time, dose: 4.8 mg/kg/injection, schedule: Q03DX003 (ip), vehicle: saline): 190 % of control | T/C (endpoint: median survival time, dose: 5.0 mg/kg/injection, schedule: Q01DX001 (ip), vehicle: water): 113 % of control and 115 % of control | T/C (endpoint: median survival time, dose: 5.4 mg/kg/injection, schedule: Q01DX001 (ip), vehicle: saline): 166 % of control | T/C (endpoint: median survival time, dose: 6.0 mg/kg/injection, schedule: Q01DX009 (ip), vehicle: clinical formulation): 98 % of control | T/C (endpoint: median survival time, dose: 6.4 mg/kg/injection, schedule: Q01DX001 (ip), vehicle: saline): 156 % of control | T/C (endpoint: median survival time, dose: 8.0 mg/kg/injection, schedule: Q01DX001 (ip), vehicle: saline): 156 % of control and 172 % of control | T/C (endpoint: median survival time, dose: 8.3 mg/kg/injection, schedule: Q01DX001 (ip), vehicle: water): 123 % of control
